Source: patent publication US12077503B2, “Substituted cyclic amides and their use as herbicides” (FMC CORPORATION, priority 2015, dated 2024)

How the values were obtained:
Type in all cases: in vivo
[1] = test system: blackgrass (Alopecurus myosuroides); test: Test A postemergence; details: Alopecurus myosuroides, post-emergence, 240 h, Postemergence; for pest or weed control at 31 g/ha: 31 g ai/ha, 0 is no effect, 100 is complete control, read-out: Blackgrass plant response rating (0 to 100 scale); for pest or weed control at 125 g/ha: 125 g ai/ha, visual injury after approx. 10 d, 0 to 100 scale, 0 no effect, 100 complete control, read-out: Plant response rating, Blackgrass
In short: (§1)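 Visual injury scores from 0, no effect, to 100, complete control, were assigned versus untreated controls roughly 10 d after treatment in the greenhouse. Test chemicals, formulated with surfactant in a non-phytotoxic solvent, were applied to planted seeds as a preemergence soil spray or postemergence to one- to two-leaf plants 2 to 10 cm tall, in loam–sand soil.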

[2] = test system: pigweed (Amaranthus retroflexus); test: Test A postemergence; details: Amaranthus retroflexus, post-emergence, 240 h, Postemergence; for pest or weed control at 31 g/ha: 31 g ai/ha, 0 is no effect, 100 is complete control, read-out: Pigweed plant response rating (0 to 100 scale); for pest or weed control at 125 g/ha: 125 g ai/ha, visual injury after approx. 10 d, 0 to 100 scale, 0 no effect, 100 complete control, read-out: Plant response rating, Pigweed
In short: as §1

[3] = test system: Galium (catchweed bedstraw, Galium aparine); test: Test A postemergence; details: Galium, post-emergence, 240 h, Postemergence; for pest or weed control at 31 g/ha: 31 g ai/ha, 0 is no effect, 100 is complete control, read-out: Galium plant response rating (0 to 100 scale); for pest or weed control at 125 g/ha: 125 g ai/ha, visual injury after approx. 10 d, 0 to 100 scale, 0 no effect, 100 complete control, read-out: Plant response rating, Galium
In short: as §1

[4] = test system: ragweed (common ragweed, Ambrosia elatior); test: Test A postemergence; details: Ambrosia artemisiifolia, post-emergence, 240 h, Postemergence; for pest or weed control at 31 g/ha: 31 g ai/ha, 0 is no effect, 100 is complete control, read-out: Ragweed plant response rating (0 to 100 scale); for pest or weed control at 125 g/ha: 125 g ai/ha, visual injury after approx. 10 d, 0 to 100 scale, 0 no effect, 100 complete control, read-out: Plant response rating, Ragweed
In short: as §1

[5] = test system: wheat (Triticum aestivum); test: Test A postemergence; details: Triticum aestivum, post-emergence, 240 h, Postemergence; for plant injury at 31 g/ha: 31 g ai/ha, 0 is no effect, 100 is complete control, read-out: Wheat plant response rating (0 to 100 scale); for plant injury at 125 g/ha: 125 g ai/ha, visual injury after approx. 10 d, 0 to 100 scale, 0 no effect, 100 complete control, read-out: Plant response rating, Wheat
In short: as §1

corn (Zea mays) = test: Test A postemergence; details: Zea mays, post-emergence, 240 h, Postemergence; for plant injury at 31 g/ha: 31 g ai/ha, 0 is no effect, 100 is complete control, read-out: Corn plant response rating (0 to 100 scale); for Corn plant response rating (crop injury, 0 = no effect, 100 = complete kill) at 125 g/ha: 125 g ai/ha, visual injury after approx. 10 d, 0 to 100 scale, 100 complete control
In short: as §1

[6] = test system: giant foxtail (Setaria faberii); test: Test A postemergence; details: Setaria faberi, post-emergence, 240 h, Postemergence; for pest or weed control at 31 g/ha: 31 g ai/ha, 0 is no effect, 100 is complete control, read-out: Foxtail, Giant plant response rating (0 to 100 scale); for pest or weed control at 125 g/ha: 125 g ai/ha, visual injury after approx. 10 d, 0 to 100 scale, 0 no effect, 100 complete control, read-out: Plant response rating, Foxtail, Giant
In short: as §1

Kochia (Kochia scoparia) [7] = test: Test A postemergence; details: Bassia scoparia, post-emergence, 240 h, Postemergence; for pest or weed control at 31 g/ha: 31 g ai/ha, 0 is no effect, 100 is complete control, read-out: Kochia plant response rating (0 to 100 scale); for pest or weed control at 125 g/ha: 125 g ai/ha, visual injury after approx. 10 d, 0 to 100 scale, 0 no effect, 100 complete control, read-out: Plant response rating, Kochia
In short: as §1

[8] = test system: barnyardgrass (Echinochloa crus-galli); test: Test A postemergence; details: Echinochloa crus-galli, post-emergence, 240 h, Postemergence; for pest or weed control at 31 g/ha: 31 g ai/ha, 0 is no effect, 100 is complete control, read-out: Barnyardgrass plant response rating (0 to 100 scale); for pest or weed control at 125 g/ha: 125 g ai/ha, visual injury after approx. 10 d, 0 to 100 scale, 0 no effect, 100 complete control, read-out: Plant response rating, Barnyardgrass
In short: as §1

[9] = test system: ryegrass, Italian (Italian ryegrass, Lolium multiflorum); test: Test A postemergence; details: Lolium multiflorum, post-emergence, 240 h, Postemergence; for pest or weed control at 31 g/ha: 31 g ai/ha, 0 is no effect, 100 is complete control, read-out: Ryegrass, Italian plant response rating (0 to 100 scale); for pest or weed control at 125 g/ha: 125 g ai/ha, visual injury after approx. 10 d, 0 to 100 scale, 0 no effect, 100 complete control, read-out: Plant response rating, Ryegrass, Italian
In short: as §1

[10] = test system: sedge, umbrella (small-flower umbrella sedge, Cyperus difformis); test: Test B flooded paddy test; details: Cyperus difformis, 360 h, Flood, 250 g ai/ha; visually evaluated after 13 to 15 d; read-out: Plant response rating, Sedge, Umbrella (0 to 100 scale where 0 is no effect and 100 is complete control)
In short: (§2)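 Rating scale 0–100 (visual, vs untreated controls) after a 13–15 d greenhouse period; application to the flood layer, 3 cm above soil and maintained; plants at 2-leaf stage when treated.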

[11] = test system: ducksalad (Heteranthera limosa); test: Test B flooded paddy test; details: Heteranthera limosa, 360 h, Flood, 250 g ai/ha; visually evaluated after 13 to 15 d; read-out: Plant response rating, Ducksalad (0 to 100 scale where 0 is no effect and 100 is complete control)
In short: as §2

rice (Oryra sativa) = test: Test B flooded paddy test; details: Oryza sativa, 360 h, Flood, 250 g ai/ha; visually evaluated after 13 to 15 d; read-out: Plant response rating, Rice (0 to 100 scale where 0 is no effect and 100 is complete control)
In short: as §2

[12] = test system: barnyardgrass (Echinochloa crus-galli); test: Test B flooded paddy test; details: Echinochloa crus-galli, 360 h, Flood, 250 g ai/ha; visually evaluated after 13 to 15 d; read-out: Plant response rating, Barnyardgrass (0 to 100 scale where 0 is no effect and 100 is complete control)
In short: as §2

[13] = test system: pigweed (Amaranthus retroflexus); test: Test A preemergence; details: Amaranthus retroflexus, pre-emergence, 240 h, Preemergence; for pest or weed control at 31 g/ha: 31 g ai/ha, 0 to 100 scale where 0 is no effect and 100 is complete control, read-out: Pigweed plant response rating; for pest or weed control at 125 g/ha: 125 g ai/ha, 0 to 100 scale (0 no effect, 100 complete control), read-out: Plant response rating, Pigweed
[14] = test system: ragweed (common ragweed, Ambrosia elatior); test: Test A preemergence; details: Ambrosia artemisiifolia, pre-emergence, 240 h, Preemergence; for pest or weed control at 31 g/ha: 31 g ai/ha, 0 to 100 scale where 0 is no effect and 100 is complete control, read-out: Ragweed plant response rating; for pest or weed control at 125 g/ha: 125 g ai/ha, 0 to 100 scale (0 no effect, 100 complete control), read-out: Plant response rating, Ragweed
In short: as §1

[15] = test system: giant foxtail (Setaria faberii); test: Test A preemergence; details: Setaria faberi, pre-emergence, 240 h, Preemergence; for pest or weed control at 31 g/ha: 31 g ai/ha, 0 to 100 scale where 0 is no effect and 100 is complete control, read-out: Foxtail, Giant plant response rating; for pest or weed control at 125 g/ha: 125 g ai/ha, 0 to 100 scale (0 no effect, 100 complete control), read-out: Plant response rating, Foxtail, Giant
In short: as §1

Kochia (Kochia scoparia) [16] = test: Test A preemergence; details: Bassia scoparia, pre-emergence, 240 h, Preemergence; for pest or weed control at 31 g/ha: 31 g ai/ha, 0 to 100 scale where 0 is no effect and 100 is complete control, read-out: Kochia plant response rating; for pest or weed control at 125 g/ha: 125 g ai/ha, 0 to 100 scale (0 no effect, 100 complete control), read-out: Plant response rating, Kochia
In short: as §1

[17] = test system: barnyardgrass (Echinochloa crus-galli); test: Test A preemergence; details: Echinochloa crus-galli, pre-emergence, 240 h, Preemergence; for pest or weed control at 31 g/ha: 31 g ai/ha, 0 to 100 scale where 0 is no effect and 100 is complete control, read-out: Barnyardgrass plant response rating; for pest or weed control at 125 g/ha: 125 g ai/ha, 0 to 100 scale (0 no effect, 100 complete control), read-out: Plant response rating, Barnyardgrass
In short: as §1

[18] = test system: ryegrass, Italian (Italian ryegrass, Lolium multiflorum); test: Test A preemergence; details: Lolium multiflorum, pre-emergence, 240 h, Preemergence; for pest or weed control at 31 g/ha: 31 g ai/ha, 0 to 100 scale where 0 is no effect and 100 is complete control, read-out: Ryegrass, Italian plant response rating; for pest or weed control at 125 g/ha: 125 g ai/ha, 0 to 100 scale (0 no effect, 100 complete control), read-out: Plant response rating, Ryegrass, Italian
In short: as §1

SMILES	pest or weed control at 31 g/ha [1] [%]	pest or weed control at 125 g/ha [1] [%]	pest or weed control at 31 g/ha [2] [%]	pest or weed control at 125 g/ha [2] [%]	pest or weed control at 31 g/ha [3] [%]	pest or weed control at 125 g/ha [3] [%]	pest or weed control at 31 g/ha [4] [%]	pest or weed control at 125 g/ha [4] [%]	plant injury at 31 g/ha [5] [%]	plant injury at 125 g/ha [5] [%]	plant injury at 31 g/ha (corn (Zea mays)) [%]	Corn plant response rating (crop injury, 0 = no effect, 100 = complete kill) at 125 g/ha (corn (Zea mays)) [%]	pest or weed control at 31 g/ha [6] [%]	pest or weed control at 125 g/ha [6] [%]	pest or weed control at 31 g/ha (Kochia (Kochia scoparia) [7]) [%]	pest or weed control at 125 g/ha (Kochia (Kochia scoparia) [7]) [%]	pest or weed control at 31 g/ha [8] [%]	pest or weed control at 125 g/ha [8] [%]	pest or weed control at 31 g/ha [9] [%]	pest or weed control at 125 g/ha [9] [%]	further results
CN1C[C@H](c2ccc(C(F)(F)F)cc2)[C@@H](C(=O)Nc2cccnc2F)C1=O [Compound 1396]	0	50	30	70	60	70	0	50	0	70	20	60	80	80	60	70	70	80	20	40	pest or weed control at 250 g/ha [10]: 0%; pest or weed control at 250 g/ha [11]: 100%; pest or weed control at 250 g/ha (rice (Oryra sativa)): 25%; pest or weed control at 250 g/ha [12]: 80%; pest or weed control at 31 g/ha [13]: 70%; pest or weed control at 125 g/ha [13]: 90%; pest or weed control at 31 g/ha [14]: 30%; pest or weed control at 125 g/ha [14]: 60%; pest or weed control at 31 g/ha [15]: 90%; pest or weed control at 125 g/ha [15]: 90%; pest or weed control at 31 g/ha (Kochia (Kochia scoparia) [16]): 30%; pest or weed control at 125 g/ha (Kochia (Kochia scoparia) [16]): 70%; pest or weed control at 31 g/ha [17]: 90%; pest or weed control at 125 g/ha [17]: 90%; pest or weed control at 31 g/ha [18]: 0%; pest or weed control at 125 g/ha [18]: 40%
CN1C[C@H](c2ccc(Cl)cc2)[C@@H](C(=O)Nc2cccc(F)n2)C1=O [Compound 1399]	20	20	0	40	40	60	0	40	0	20	0	0	70	90	50	70	90	90	20	20	pest or weed control at 250 g/ha [10]: 0%; pest or weed control at 250 g/ha [11]: 100%; pest or weed control at 250 g/ha (rice (Oryra sativa)): 15%; pest or weed control at 250 g/ha [12]: 85%; pest or weed control at 31 g/ha [13]: 30%; pest or weed control at 125 g/ha [13]: 30%; pest or weed control at 31 g/ha [14]: 50%; pest or weed control at 125 g/ha [14]: 60%; pest or weed control at 31 g/ha [15]: 90%; pest or weed control at 125 g/ha [15]: 90%; pest or weed control at 31 g/ha (Kochia (Kochia scoparia) [16]): 20%; pest or weed control at 125 g/ha (Kochia (Kochia scoparia) [16]): 70%; pest or weed control at 31 g/ha [17]: 80%; pest or weed control at 125 g/ha [17]: 90%; pest or weed control at 31 g/ha [18]: 0%; pest or weed control at 125 g/ha [18]: 40%
